Measured values: patent publication US9616040B2 (priority 2016, dated 2017)
Where “and” joins values, the source holds several entries; their conditions need not be identical. Equal entries are not always repeated.

What was measured:
[1] = administered in large quantities; cited from earlier work
[2] = In vitro resorption of bovine vertebral cortical bone sections (weight change after incubation)
Protocol: Fresh bovine vertebral bone was cut into 1-3 g sections with a diamond saw blade. Non-cortical medullary bone was trimmed from the cortical bone and the sections were dried while incubated for 12 hours at 37° C. and then weighed. […] Bone sections were then dried and reweighed.

[3] = citric acid 0.001M, pH 3.25, 37° C., 96 hours
[4] = citric acid 0.01M, pH 2.62, 37° C., 96 hours
[5] = citric acid 0.1M, pH 2.08, 37° C., 96 hours
[6] = citric acid 1M, pH 1.57, 37° C., 96 hours
[7] = sodium citrate 0.001M, pH 7.65, 37° C., 96 hours
[8] = sodium citrate 0.01M, pH 7.78, 37° C., 96 hours
[9] = sodium citrate 0.1M, pH 9.27, 37° C., 96 hours
[10] = sodium citrate 1M, pH 8.67, 37° C., 96 hours

For `O=C(O)CC(O)(CC(=O)O)C(=O)O` [Citrate], the toxicity [1] is listed as “non-toxic”.
With `O=C(O)CC(O)(CC(=O)O)C(=O)O` [Citric acid, citric acid] the “% change” value [2, 3] was “+0.00349%”, the Wt. change [2, 3] was “+0.00432 g” and the “% change” value [2, 4] was −0.04435%. The Wt. change [2, 4] was -0.06128 g, the “% change” value [2, 5] was −0.1198% and the Wt. change [2, 5] was -0.1916 g. For the same compound, the “% change” value [2, 6] was −0.288%, the Wt. change [2, 6] was -0.4863 g and the “dependence of bone resorption” value ([2]; citric acid, 37° C., 96 hours) was “pH dependent”.
In the case of `O=C([O-])CC(O)(CC(=O)[O-])C(=O)[O-].[Na+].[Na+].[Na+]` [Sodium citrate, sodium citrate], the “% change” value [2, 7] is reported as −0.00037%, the Wt. change [2, 7] is reported as -0.00077 g and the “% change” value [2, 8] is reported as −0.01319%. The Wt. change [2, 8] was -0.03261 g, the “% change” value ([2]; sodium citrate 0.1M, pH 9.27, 37° C.) was −0.03159% and −0.00551% and the “% change” value [2, 9] was −0.01116%. The Wt. change [2, 9] was -0.01593 g, the “% change” value ([2]; sodium citrate 0.125M, pH 9.20, 37° C.) was −0.00109% and −0.03799% and the “% change” value ([2]; sodium citrate 0.15M, pH 9.16, 37° C.) was −0.04659% and −0.05754%. The “% change” value ([2]; sodium citrate 0.25M, pH 9.12, 37° C.) was −0.00373% and −0.01174%, the “% change” value ([2]; sodium citrate 0.55M, pH 8.68, 37° C.) was −0.00196% and −0.01386% and the “% change” value [2, 10] was −0.01873%. The Wt. change [2, 10] was -0.04881 g and the “molarity of greatest resorption of bone” value ([2]; sodium citrate, 37° C., 168 hours) was 0.15 M.
